Reference: ChEMBL document CHEMBL1201862, “PubChem BioAssay data set” (2004)
“And” between values parts separate entries of the source, which are not always exact repeats. Equal values may be shown once. The source made the active and inactive calls.

Legend:
[1] = molecular target: Metabotropic glutamate receptor 4 (Rattus norvegicus, UniProt P31423); assay: Modulation of the Metabotropic Glutamate Receptor mGluR4: Rat PAM Potency. [Related pubchem assays (depositor defined):AID2437, AID2807]; assay type: functional
[2] = molecular target: G-protein coupled receptor 55 (Homo sapiens, UniProt Q9Y2T6); assay: selective activators of receptor GPR55 – imaging, U2OS cells, beta-arrestin-GFP redistribution, primary screen (AID 1961); assay type: functional
[3] = molecular target: T1, Kappa-type opioid receptor (Homo sapiens, UniProt P41145); assay type: functional
T1 sequence (P41145 whole entry): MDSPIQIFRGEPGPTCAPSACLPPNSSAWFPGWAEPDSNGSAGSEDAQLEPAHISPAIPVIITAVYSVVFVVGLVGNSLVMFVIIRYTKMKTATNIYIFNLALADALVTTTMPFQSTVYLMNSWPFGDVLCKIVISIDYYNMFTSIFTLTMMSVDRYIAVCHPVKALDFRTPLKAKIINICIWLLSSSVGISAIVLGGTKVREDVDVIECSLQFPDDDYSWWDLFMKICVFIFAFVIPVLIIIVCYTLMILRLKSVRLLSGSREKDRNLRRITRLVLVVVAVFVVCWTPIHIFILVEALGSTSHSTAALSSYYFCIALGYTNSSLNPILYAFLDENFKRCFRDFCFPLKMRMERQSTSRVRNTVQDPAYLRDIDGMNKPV

[4] = molecular target: T2, Delta-type opioid receptor (Homo sapiens, UniProt P41143); assay: HTS Image-Based Screen for Antagonists of the DOR Receptor. [Related pubchem assays (depositor defined):AID1777, AID1785, AID1786, AID2133]; assay type: functional
T2 sequence (P41143 whole entry): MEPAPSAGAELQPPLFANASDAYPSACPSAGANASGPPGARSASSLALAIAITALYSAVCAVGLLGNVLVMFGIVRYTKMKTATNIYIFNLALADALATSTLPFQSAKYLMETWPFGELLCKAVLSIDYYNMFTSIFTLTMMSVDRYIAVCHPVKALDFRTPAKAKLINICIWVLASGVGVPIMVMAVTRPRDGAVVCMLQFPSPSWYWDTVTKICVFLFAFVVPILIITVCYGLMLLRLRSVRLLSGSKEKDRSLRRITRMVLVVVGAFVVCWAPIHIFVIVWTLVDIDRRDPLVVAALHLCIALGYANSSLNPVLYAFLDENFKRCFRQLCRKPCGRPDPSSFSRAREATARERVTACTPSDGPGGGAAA

[5] = molecular target: T3, Mu-type opioid receptor (Homo sapiens, UniProt P35372); assay: HTS Image-Based Screen for Agonists of the MOR Receptor. [Related pubchem assays (depositor defined):AID1777, AID1785, AID1786, AID2133]; assay type: functional
T3 sequence (P35372 whole entry): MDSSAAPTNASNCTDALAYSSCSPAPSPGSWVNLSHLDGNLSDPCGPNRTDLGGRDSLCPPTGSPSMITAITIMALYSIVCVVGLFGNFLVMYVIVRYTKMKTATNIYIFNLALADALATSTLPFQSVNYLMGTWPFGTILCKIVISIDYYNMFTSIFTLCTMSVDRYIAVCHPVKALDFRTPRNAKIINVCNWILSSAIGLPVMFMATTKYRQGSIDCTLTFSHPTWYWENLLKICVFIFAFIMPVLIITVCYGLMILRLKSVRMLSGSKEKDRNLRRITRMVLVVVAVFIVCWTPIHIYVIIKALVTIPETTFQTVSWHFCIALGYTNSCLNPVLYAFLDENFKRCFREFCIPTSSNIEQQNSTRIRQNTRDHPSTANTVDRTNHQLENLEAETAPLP

[6] = molecular target: Cytochrome P450 2C9 (Homo sapiens, UniProt P11712)
[7] = molecular target: T1, Kappa-type opioid receptor; assay type: functional; remark: listed apart in the source
[8] = molecular target: T2, Delta-type opioid receptor; assay: HTS Image-Based Screen for Agonists of the DOR Receptor. [Related pubchem assays (depositor defined):AID1777, AID1786, AID2133]; assay type: functional
[9] = molecular target: Cytochrome P450 2C19 (Homo sapiens, UniProt P33261); assay: Cytochrome panel assay with activity outcomes. Panel member name: p450-cyp2c19 Compounds with AC50 equal or less than 10 uM are considered active; assay type: functional; conditions: read-out: AC50
[10] = molecular target: T1, Kappa-type opioid receptor; assay: SAR analysis of Antagonists of the Kappa Opioid Receptor (KOR) using an Image-Based Assay - Set 3. [Related pubchem assays (depositor defined):AID1777, AID1785]; assay type: functional
[11] = molecular target: T1, Kappa-type opioid receptor; assay: SAR analysis of small molecule antagonists of the kappa opioid receptor via a luminescent beta-arrestin assay - Set 3. [Related pubchem assays (depositor defined):AID1777, AID1778, AID1785, AID1786, AID1966, AID2133, AID2136, AID2285, AID2495]; assay type: functional
[12] = molecular target: T1, Kappa-type opioid receptor; assay: kappa opioid receptor activation potency – imaging, image-based, SAR follow-up (AID 2359); assay type: functional
[13] = molecular target: T1, Kappa-type opioid receptor; assay: kappa opioid receptor blockers, cell-based, luminescence, beta-arrestin, SAR follow-up (AID 2285); assay type: functional
[14] = molecular target: T3, Mu-type opioid receptor; assay: mu opioid receptor blockers – image-based, SAR follow-up (AID 2420); assay type: functional;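 further: compounds added before stimulation of receptor with agonist DAMGO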
[15] = molecular target: T1, Kappa-type opioid receptor; assay type: functional; remark: listed apart in the source
[16] = molecular target: T3, Mu-type opioid receptor; assay: SAR Analysis of Antagonists of the MOR Receptor using an Image-Based Assay - Set 3. [Related pubchem assays (depositor defined):AID1777, AID1785, AID1786, AID1966, AID2133, AID2136, AID2284, AID2285, AID2420]; assay type: functional
[17] = molecular target: T2, Delta-type opioid receptor; assay: SAR Analysis of Antagonists of the DOR Receptor using an Image-Based Assay - Set 3. [Related pubchem assays (depositor defined):AID1777, AID1785]; assay type: functional
[18] = molecular target: T2, Delta-type opioid receptor; assay: DOR agonists, SAR follow-up, image-based (AID 2370); assay type: functional
[19] = molecular target: T1, Kappa-type opioid receptor; assay: kappa opioid receptor blockers, image-based, SAR follow-up (AID 2348); assay type: functional
[20] = molecular target: T2, Delta-type opioid receptor; assay: delta opioid receptor blockers – image-based, SAR follow-up (AID 2357); assay type: functional
[21] = molecular target: T3, Mu-type opioid receptor; assay: mu opioid receptor activators, image-based, SAR follow-up (AID 2352); assay type: functional
[22] = molecular target: Beta-galactosidase (Escherichia coli, UniProt Q8VNN2); assay type: functional
[23] = molecular target: T1, Kappa-type opioid receptor; assay type: functional; remark: listed apart in the source
[24] = molecular target: T1, Kappa-type opioid receptor; assay: SAR analysis of Antagonists of the Kappa Opioid Receptor (KOR) using an Image-Based Assay - Set 4. [Related pubchem assays (depositor defined):AID1777, AID1785]; assay type: functional
[25] = molecular target: Eukaryotic translation initiation factor 4H (Homo sapiens, UniProt Q15056); assay: eIF4H binding inhibition – biochemical, uHTS, fluorescence polarization, translation initiation inhibitor project, primary screen (AID 2012)
[26] = molecular target: T4, Luciferin 4-monooxygenase (Photinus pyralis, UniProt P08659); assay: inhibition of purified Photinus pyralis luciferase – biochemical, luminescence, dose response (AID 1891)
T4 sequence (P08659 whole entry): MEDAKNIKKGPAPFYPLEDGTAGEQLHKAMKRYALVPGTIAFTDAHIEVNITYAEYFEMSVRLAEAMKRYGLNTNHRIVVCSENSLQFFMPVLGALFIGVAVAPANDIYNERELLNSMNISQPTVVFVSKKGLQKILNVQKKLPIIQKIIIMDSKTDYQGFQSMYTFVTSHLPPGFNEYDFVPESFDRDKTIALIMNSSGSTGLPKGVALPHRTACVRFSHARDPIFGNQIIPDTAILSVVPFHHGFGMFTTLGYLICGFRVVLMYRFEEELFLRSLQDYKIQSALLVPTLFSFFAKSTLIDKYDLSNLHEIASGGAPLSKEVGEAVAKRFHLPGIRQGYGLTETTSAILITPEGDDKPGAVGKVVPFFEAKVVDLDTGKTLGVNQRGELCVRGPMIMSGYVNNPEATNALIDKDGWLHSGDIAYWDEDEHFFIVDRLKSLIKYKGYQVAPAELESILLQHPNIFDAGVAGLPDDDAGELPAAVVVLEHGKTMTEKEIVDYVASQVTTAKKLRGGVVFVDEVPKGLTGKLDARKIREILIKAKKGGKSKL

[27] = molecular target: Polyadenylate-binding protein 1 (Homo sapiens, UniProt P11940); assay: blockers of PABP interaction with poly(A) – biochemical, fluorescence polarization, […] (AID 2014)
[28] = Luminescence Cell-Based Dose Confirmation HTS to Identify Inhibitors of Platelet Dense Granule Release. [Related pubchem assays: 1663 (Primary HTS), 1678 (Summary of Project)]; assay type: functional
[29] = molecular target: T5, Voltage-gated N-type calcium channel alpha-1B subunit/Amyloid beta A4 precursor protein-binding family A member 1 (Homo sapiens, UniProt Q00975+Q02410); assay: disruptors of Mint-PDZ/N-type channel peptide interaction – biochemical, HTRF, SAR follow-up (AID 2489); assay type: functional
T5 sequence (Q00975 whole entry): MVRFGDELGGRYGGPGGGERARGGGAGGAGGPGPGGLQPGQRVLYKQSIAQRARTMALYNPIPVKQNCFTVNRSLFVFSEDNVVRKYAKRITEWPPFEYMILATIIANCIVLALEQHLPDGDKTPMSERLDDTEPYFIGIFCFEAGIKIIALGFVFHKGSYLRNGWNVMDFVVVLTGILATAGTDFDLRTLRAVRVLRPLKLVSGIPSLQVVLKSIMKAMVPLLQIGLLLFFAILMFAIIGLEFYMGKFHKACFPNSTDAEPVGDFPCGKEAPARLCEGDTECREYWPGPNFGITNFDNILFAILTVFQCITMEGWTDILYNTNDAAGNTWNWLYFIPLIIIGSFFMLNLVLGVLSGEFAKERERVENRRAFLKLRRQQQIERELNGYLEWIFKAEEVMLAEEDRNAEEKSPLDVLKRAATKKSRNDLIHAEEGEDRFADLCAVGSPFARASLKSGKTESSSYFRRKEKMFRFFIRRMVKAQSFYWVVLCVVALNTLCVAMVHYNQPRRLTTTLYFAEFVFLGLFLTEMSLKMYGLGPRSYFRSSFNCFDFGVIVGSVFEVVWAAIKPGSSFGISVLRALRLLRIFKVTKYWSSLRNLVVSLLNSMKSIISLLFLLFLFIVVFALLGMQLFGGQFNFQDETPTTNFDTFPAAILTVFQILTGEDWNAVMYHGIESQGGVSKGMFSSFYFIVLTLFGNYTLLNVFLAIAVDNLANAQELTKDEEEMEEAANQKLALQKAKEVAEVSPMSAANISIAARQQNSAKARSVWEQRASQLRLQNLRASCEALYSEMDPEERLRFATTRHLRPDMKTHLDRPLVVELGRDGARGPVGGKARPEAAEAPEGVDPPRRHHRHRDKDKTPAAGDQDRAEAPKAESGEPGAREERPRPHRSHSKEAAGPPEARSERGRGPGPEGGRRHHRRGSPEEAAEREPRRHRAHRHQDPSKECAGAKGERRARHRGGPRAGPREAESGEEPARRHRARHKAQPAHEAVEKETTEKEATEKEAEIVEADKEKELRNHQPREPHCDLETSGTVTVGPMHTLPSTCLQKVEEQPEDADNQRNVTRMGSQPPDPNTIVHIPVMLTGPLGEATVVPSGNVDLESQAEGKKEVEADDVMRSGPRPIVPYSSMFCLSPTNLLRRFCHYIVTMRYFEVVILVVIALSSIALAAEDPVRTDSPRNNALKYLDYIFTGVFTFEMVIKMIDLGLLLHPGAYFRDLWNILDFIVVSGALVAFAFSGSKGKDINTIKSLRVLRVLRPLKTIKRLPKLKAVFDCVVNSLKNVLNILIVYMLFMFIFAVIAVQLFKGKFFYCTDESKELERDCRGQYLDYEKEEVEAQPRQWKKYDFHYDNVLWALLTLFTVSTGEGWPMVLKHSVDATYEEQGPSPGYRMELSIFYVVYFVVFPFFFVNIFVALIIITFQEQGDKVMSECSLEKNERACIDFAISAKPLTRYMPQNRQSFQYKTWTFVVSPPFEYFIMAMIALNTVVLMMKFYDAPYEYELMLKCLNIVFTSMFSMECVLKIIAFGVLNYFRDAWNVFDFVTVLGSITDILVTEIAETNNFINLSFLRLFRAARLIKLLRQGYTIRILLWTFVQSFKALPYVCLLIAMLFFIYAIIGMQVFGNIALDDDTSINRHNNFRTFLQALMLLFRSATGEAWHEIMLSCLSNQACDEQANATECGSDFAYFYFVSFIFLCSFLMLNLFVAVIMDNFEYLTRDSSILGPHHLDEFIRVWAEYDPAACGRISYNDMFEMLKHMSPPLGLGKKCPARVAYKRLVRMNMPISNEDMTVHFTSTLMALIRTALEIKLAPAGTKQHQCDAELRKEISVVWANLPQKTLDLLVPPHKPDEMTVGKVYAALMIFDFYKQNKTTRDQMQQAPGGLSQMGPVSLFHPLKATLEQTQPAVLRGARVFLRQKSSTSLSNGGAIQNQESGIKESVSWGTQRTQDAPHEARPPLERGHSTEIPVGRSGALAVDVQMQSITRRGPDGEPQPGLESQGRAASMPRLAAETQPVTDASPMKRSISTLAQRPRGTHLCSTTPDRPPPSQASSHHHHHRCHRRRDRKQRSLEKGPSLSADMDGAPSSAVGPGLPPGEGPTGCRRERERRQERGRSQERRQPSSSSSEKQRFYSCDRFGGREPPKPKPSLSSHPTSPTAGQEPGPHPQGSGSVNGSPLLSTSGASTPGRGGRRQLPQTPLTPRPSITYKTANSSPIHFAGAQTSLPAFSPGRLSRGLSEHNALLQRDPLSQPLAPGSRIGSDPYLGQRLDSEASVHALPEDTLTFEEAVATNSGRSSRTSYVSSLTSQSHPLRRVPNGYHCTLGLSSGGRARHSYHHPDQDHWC
T5 sequence (Q02410 whole entry): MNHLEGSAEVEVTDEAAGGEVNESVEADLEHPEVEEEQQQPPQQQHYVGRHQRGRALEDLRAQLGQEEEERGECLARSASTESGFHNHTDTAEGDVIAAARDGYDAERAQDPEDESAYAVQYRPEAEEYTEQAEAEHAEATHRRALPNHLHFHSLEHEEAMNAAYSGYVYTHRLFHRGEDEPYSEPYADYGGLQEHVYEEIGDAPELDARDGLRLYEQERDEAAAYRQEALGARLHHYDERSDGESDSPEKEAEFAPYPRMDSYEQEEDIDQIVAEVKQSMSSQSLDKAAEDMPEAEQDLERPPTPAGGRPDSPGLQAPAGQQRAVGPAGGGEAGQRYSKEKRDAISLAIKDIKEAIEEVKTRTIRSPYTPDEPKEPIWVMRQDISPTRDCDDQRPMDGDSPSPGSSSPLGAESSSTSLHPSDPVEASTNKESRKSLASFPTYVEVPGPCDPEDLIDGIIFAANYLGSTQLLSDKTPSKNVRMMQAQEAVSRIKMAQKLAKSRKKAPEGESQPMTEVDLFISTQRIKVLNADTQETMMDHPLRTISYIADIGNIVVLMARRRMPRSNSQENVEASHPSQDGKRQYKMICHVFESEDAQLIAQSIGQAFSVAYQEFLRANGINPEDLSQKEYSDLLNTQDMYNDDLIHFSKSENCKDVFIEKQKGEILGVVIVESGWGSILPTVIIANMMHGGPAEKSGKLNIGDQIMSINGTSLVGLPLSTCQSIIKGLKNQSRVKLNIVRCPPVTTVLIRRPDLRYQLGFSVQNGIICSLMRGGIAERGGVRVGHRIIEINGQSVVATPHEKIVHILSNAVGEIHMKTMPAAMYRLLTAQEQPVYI

[30] = molecular target: T5, Voltage-gated N-type calcium channel alpha-1B subunit/Amyloid beta A4 precursor protein-binding family A member 1; assay: disruptors of Mint-PDZ/N-type channel peptide interaction – biochemical, HTRF, set 2, SAR follow-up (AID 434980); assay type: functional
[31] = molecular target: T6, Scavenger receptor class B member 1 (Mus musculus, UniProt Q61009); assay: mouse SR-BI DiI-HDL uptake blockers – ldlA[mSR-BI] cells, fluorescence, cherry pick, dose response (AID 493194); assay type: functional, cell-based;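 further: cellular uptake of fluorescent DiI-labeled HDL measured as cell fluorescence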
T6 sequence (Q61009 whole entry): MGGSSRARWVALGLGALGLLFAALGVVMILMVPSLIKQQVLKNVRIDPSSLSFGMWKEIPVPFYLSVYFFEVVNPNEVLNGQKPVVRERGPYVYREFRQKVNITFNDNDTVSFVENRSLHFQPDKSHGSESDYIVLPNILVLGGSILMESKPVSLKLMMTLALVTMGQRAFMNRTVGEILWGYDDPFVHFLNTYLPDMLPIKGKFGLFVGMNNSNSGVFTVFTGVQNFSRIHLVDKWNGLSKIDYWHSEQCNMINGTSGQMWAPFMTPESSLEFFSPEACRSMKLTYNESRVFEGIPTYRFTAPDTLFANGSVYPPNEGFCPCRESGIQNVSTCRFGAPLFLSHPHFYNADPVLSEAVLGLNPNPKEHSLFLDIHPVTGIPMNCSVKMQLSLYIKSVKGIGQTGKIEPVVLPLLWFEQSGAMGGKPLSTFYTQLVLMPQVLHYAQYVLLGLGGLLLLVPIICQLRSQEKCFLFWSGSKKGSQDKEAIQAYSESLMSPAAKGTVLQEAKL

[32] = molecular target: T4, Luciferin 4-monooxygenase; assay: In vitro luciferase assay using purified luciferase. [Related pubchem assays: 1299, 1270, 1295, 1375, 1287, 1281, 1293, 1291, 1289, 1280, 465, 1364, 1282, 1372, 1365, 1370, 1367, 1366, 1266, 1373, 1292, 1290, 1302, 1371, 1283, 1271, 1294, 1374, 1368, 1369 ]
[33] = tested on: HEK293; assay: PMA/Ionomycin-induced IL-8 production in HEK293- NF-kB-Luc stable cells. [Related pubchem assays: 1299, 1295, 1375, 1287, 1281, 1293, 1291, 1289, 1280, 465, 1364, 1282, 1372, 1365, 1367, 1366, 1266, 1269, 1373, 1292, 1290, 1302, 1371, 1283, 1271, 1294, 1374, 1368, 1369 ]; assay type: functional, cell-based; conditions: Homo sapiens
[34] = tested on: HEK293; assay: TNF Induced NF-kB Luciferase in 293-NF-kB-Luc Stable Cells. [Related pubchem assays: 1266, 1299, 1269, 1373, 1292, 1290, 1302, 1371, 1283, 1270, 1295, 1271, 1375, 1294, 1374, 1281, 1293, 1291, 1289, 1280, 465, 1368, 1364, 1282, 1372, 1365, 1369, 1370, 1367, 1366 ]; assay type: functional, cell-based; conditions: Homo sapiens
[35] = tested on: HEK293; assay: PMA/Ionomycin induced NF-kB luciferase assay in 293- NF-kB-Luc stable cells. [Related pubchem assays: 1299, 1270, 1295, 1375, 1287, 1281, 1293, 1291, 1289, 1280, 465, 1364, 1282, 1372, 1365, 1370, 1367, 1366, 1269, 1373, 1292, 1290, 1302, 1371, 1283, 1271, 1294, 1374, 1368, 1369 ]; assay type: functional, cell-based; conditions: Homo sapiens
[36] = tested on: HEK293; assay: Cytotoxicity assay in HEK293 cells. [Related pubchem assays (depositor defined):AID1266, AID1269, AID1270, AID1271, AID1280, AID1281, AID1282, AID1283, AID1287, AID1289, AID1290, AID1291, AID1292, AID1293, AID1294, AID1295, AID1299, AID1302, AID1364, AID1365, AID1366, AID1367, AID1369, AID1370, AID1371, AID1372, AID1373, AID1374, AID1375, AID1384 …; assay type: functional, cell-based; conditions: Homo sapiens

## COc1cc(NC(=O)c2ccccn2)ccc1NC(=O)c1ccccc1Cl
[1]
  EC50: 0.11 µM (active)

## CN1CCN(c2nc(Nc3ccccc3)nc(N)c2[N+](=O)[O-])CC1
[2]
  EC50: 10.7 µM (inactive)

## CCC(C)(C(=O)NC1CCCC1)N(Cc1ccco1)C(=O)c1ccccn1 (centres undefined)
[3]
  EC50: 9.05 µM
[4]
  IC50: > 32 µM (inactive)
[5]
  EC50: > 32 µM (inactive)
[6]
  AC50: 12.6 µM (inconclusive)
[7]
  EC50: 11.4 µM
[8]
  EC50: > 32 µM (inactive)
[9]
  AC50: 7.94 µM (inconclusive)

## COc1ccc(N2CCN(CCCNC(=O)Cn3c(=O)c4cccn4c4cccnc43)CC2)cc1
[10]
  IC50: 243 nM (active) and 670 nM (active)
[11]
  IC50: 1.07 µM (active) and 3.05 µM (active)
[12]
  EC50: > 32 µM (inactive)
[13]
  IC50: 1.67 µM (active)
[14]
  IC50: > 32 µM (inactive)
[15]
  IC50: 1.32 µM
[4]
  IC50: > 32 µM (inactive)
[16]
  IC50: > 32 µM (inactive)
[5]
  EC50: > 32 µM (inactive)
[17]
  IC50: > 32 µM (inactive)
[18]
  EC50: > 32 µM (inactive)
[19]
  IC50: 4.14 µM (active)
[20]
  IC50: > 32 µM (inactive)
[21]
  EC50: > 32 µM (inactive)
[22]
  EC50: > 31.5 µM (inactive)
[8]
  EC50: > 32 µM (inactive)
[23]
  IC50: 2.17 µM (active)
[24]
  IC50: 0.205 µM (active)

## CC(=O)c1cccc(NC(=O)CCc2nnc3ccc(NCc4ccco4)nn23)c1
[25]
  IC50: 12 µM (active)
[26]
  EC50: > 112 µM (not active)
[27]
  IC50: 77 µM (active)
[28]
  EC50: > 112 µM (not active)

## CCCOc1ccc(N2C(=O)C3C(C2=O)C2(C)C=CC3(C)O2)cc1 (centres undefined)
[29]
  IC50: 9.66 µM (active)
[30]
  IC50: > 56.8 µM (inactive)

## CCOc1ccc(CCNC(=O)C2CC(=O)N(c3ccccc3OCC)C2)cc1OCC (centres undefined)
[31]
  AC50: 17.3 µM (active)

## CCOc1ccc(N(CC(=O)Nc2ccccc2Br)S(C)(=O)=O)cc1
[32]
  EC50: > 8 µM (not active)
[33]
  EC50: 8.11 µM (not active)
[34]
  EC50: > 8 µM (not active)
[35]
  EC50: 2.78 µM (active)
[36]
  EC50: 15.5 µM (inactive)
